Data set [1] can be described thus: log P determination by HPLC (EEC Directive 79/831 Annex V.A8). The format is physicochemical. The protocol: The measurements were carried out using an Agilent 1100 LC system with a 50*4.6 Zorbax Eclipse C18 1.8 μm column (oven temperature 55° C., flow rate 2.0 ml/min).
The following mobile phases were used:
Mobile phase A: acetonitrile+1000 μl of formic acid/l
Mobile phase B: Millipore water+900 μl of formic acid/l

The subject of data set [2] is larvae of the mustard beetle (Phaedon cochleariae). In words: Phaedon test (PHAECO spray treatment). To be noted: Phaedon cochleariae, in Brassica rapa, foliar, read-out: effect in % (beetle larvae killed).
The test system of data set [3] is caterpillars of the armyworm (Spodoptera frugiperda). The data set is described as follows: Spodoptera frugiperda test (SPODFR spray treatment). Type of data set: in vivo. As to conditions: Spodoptera frugiperda, foliar, read-out: effect in % (caterpillars killed). An excerpt:
(§1) Solvent: 78.0 parts by weight of acetone

Data set [4] concerns green peach aphid (Myzus persicae). The data set is described as follows: Myzus test (MYZUPE spray treatment). The format is in vivo. As to conditions: Myzus persicae, foliar, read-out: effect in % (aphids killed).
Text: Solvent: 78 parts by weight of acetone
as §1

[5] abbreviates: reversed-phase HPLC, Zorbax Eclipse C18 column, by HPLC according to EEC Directive 79/831 Annex V.A8, read-out: log P.
Setting [6] is: application rate 100 g/ha, maize leaf discs.
Setting [7] is: application rate 100 g/ha, Chinese cabbage leaf discs.
Where [8] appears, read: reversed-phase HPLC, Zorbax Eclipse C18 column, determined by HPLC according to EEC Directive 79/831 Annex V.A8, read-out: log P.

Like-named read-outs stand apart in the source and are kept apart here.

`CSC[C@H](C)NC(=O)c1cc(I)cc(C)c1NC(=O)c1cc(Cn2nnc(C(F)(C(F)(F)F)C(F)(F)F)n2)nn1-c1ncccc1Cl` [Example 385]: the chromatographic logP in data set [1] (setting [5]) worked out at 4.63. The pest or weed control at 100 g/ha in data set [2], in data set [3] (setting [6]) and in data set [4] (setting [7]) was no less than 80% throughout.
`CNC(=O)c1cc(F)cc(C)c1NC(=O)c1cc(Cn2nnnc2C(F)(F)F)nn1-c1ncccc1Cl` [Example 167]: the chromatographic logP in data set [1] (log P) came to 2.32. Besides, the pest or weed control at 100 g/ha in data set [2], in data set [3] (in Zea mays) and in data set [4] (in Brassica rapa) was no less than 80% throughout.
`Cc1cc(C#N)cc(C(=O)NC2CC2)c1NC(=O)c1cc(Cn2nnc(C(F)(F)C(F)(F)C(F)(F)F)n2)nn1-c1ncccc1Cl` [Example 113]: the chromatographic logP in data set [1] (by HPLC according to EEC Directive 79/831 Annex V.A8, read-out: log P) turned out to be 3.58. Further, the pest or weed control at 100 g/ha in data set [2], in data set [3] (in Zea mays) and in data set [4] (in Brassica rapa) was no less than 80% each time.
For the compound `Cc1cc(C#N)cc(C(=O)NCC#N)c1NC(=O)c1cc(Cn2nnc(C(F)F)n2)nn1-c1ncccc1Cl` [Example 271], the chromatographic logP in data set [1] (log P) stood at 2.19. Moreover, the pest or weed control at 100 g/ha in data set [2], in data set [3] (in Zea mays) and in data set [4] (in Brassica rapa) was no less than 80% each time.
Turning to `CNC(=O)c1cc(Cl)cc(C)c1NC(=O)c1cc(Cn2nnnc2C(F)(F)F)nn1-c1ncccc1Cl` [Example 161], the chromatographic logP in data set [1] (log P) came to 2.63. The pest or weed control at 100 g/ha in data set [2], in data set [3] (in Zea mays) and in data set [4] (in Brassica rapa) was no less than 80% each time.
`CC(C)(C)NC(=O)c1cc(Cl)cc(Cl)c1NC(=O)c1cc(Cn2nnnc2C(F)(F)F)nn1-c1ncccc1Cl` [Example 177] returned a chromatographic logP in data set [1] (log P) of 3.43. Also, the pest or weed control at 100 g/ha in data set [2], in data set [3] (in Zea mays) and in data set [4] (in Brassica rapa) was no less than 80% in each case.
Regarding `Cc1cc(C#N)cc(C(=O)NC(C)(C)C)c1NC(=O)c1cc(Cn2nnnc2C(F)(F)C(F)(F)F)nn1-c1ncccc1Br` [Example 518], in data set [1] (setting [8]), the chromatographic logP was determined as 3.47. The pest or weed control at 100 g/ha in data set [2], in data set [3] (setting [6]) and in data set [4] (setting [7]) was no less than 80% in each case.
In data set [1] (log P), `Cc1cc(C#N)cc(C(=O)NC(C)C2CC2)c1NC(=O)c1cc(Cn2nnnc2C(F)F)nn1-c1ncccc1Cl` (stereo not shown) [Example 467] yielded a chromatographic logP of 2.58. Moreover, the pest or weed control at 100 g/ha in data set [2], in data set [3] (in Zea mays) and in data set [4] (in Brassica rapa) was no less than 80% throughout.
With `Cc1cc(C#N)cc(C(=O)NC(C)C)c1NC(=O)c1cc(Cn2nnnc2C(F)(C(F)(F)F)C(F)(F)F)nn1-c1ncccc1Cl` [Example 500], the chromatographic logP in data set [1] (setting [8]) is 3.5. Moreover, the pest or weed control at 100 g/ha in data set [2], in data set [3] (setting [6]) and in data set [4] (setting [7]) was no less than 80% throughout.
Regarding `Cc1cc(C#N)cc(C(=O)NC(C)(C)C)c1NC(=O)c1cc(Cn2nnc(C(F)(F)F)n2)nn1-c1ccccc1` [Example 428], the chromatographic logP in data set [1] (setting [8]) was determined as 3.72. Further, the pest or weed control at 100 g/ha in data set [2], in data set [3] (setting [6]) and in data set [4] (setting [7]) was no less than 80% throughout.
Take `Cc1cc(C#N)cc(C(=O)NC(C)(C)C)c1NC(=O)c1cc(Cn2nnnc2C(F)(F)F)nn1-c1ncccc1F` [Example 509]: the chromatographic logP in data set [1] (setting [8]) came out at 2.92. For the same compound, the pest or weed control at 100 g/ha in data set [2], in data set [3] (setting [6]) and in data set [4] (setting [7]) was no less than 80% each time.
In turn, `Cc1cc(F)cc(C(=O)NCC#N)c1NC(=O)c1cc(Cn2nnc(C(F)(F)F)n2)nn1-c1ncccc1Cl` [Example 53] had a chromatographic logP in data set [1] (log P) of 2.67. The pest or weed control at 100 g/ha in data set [2], in data set [3] (in Zea mays) and in data set [4] (in Brassica rapa) was no less than 80% in each case.
As to `Cc1cc(C#N)cc(C(=O)N[C@@H]2C[C@H]2CO)c1NC(=O)c1cc(Cn2nnc(C(F)(F)F)n2)nn1-c1ncccc1Cl` [Example 76], the chromatographic logP in data set [1] (log P) amounted to 2.39. Further, the pest or weed control at 100 g/ha in data set [2], in data set [3] (in Zea mays) and in data set [4] (in Brassica rapa) was no less than 80% each time.
Regarding `Cc1cc(Br)cc(C(=O)NC(C)(C)C)c1NC(=O)c1cc(Cn2nnc(C(F)F)n2)nn1-c1ncccc1Cl` [Example 309], the chromatographic logP in data set [1] (log P) stood at 3.36. The pest or weed control at 100 g/ha in data set [2], in data set [3] (in Zea mays) and in data set [4] (in Brassica rapa) was no less than 80% throughout.
In data set [1] (log P), `CSC[C@H](C)NC(=O)c1cc(F)cc(C)c1NC(=O)c1cc(Cn2nnc(C(F)(F)F)n2)nn1-c1ncccc1Cl` [Example 43] yielded a chromatographic logP of 3.31. For the same compound, the pest or weed control at 100 g/ha in data set [2], in data set [3] (in Zea mays) and in data set [4] (in Brassica rapa) was no less than 80% in each case.
As for `Cc1cc(C#N)cc(C(=O)NCC2CC2)c1NC(=O)c1cc(Cn2nnc(C(F)F)n2)nn1-c1ncccc1Cl` [Example 269], in data set [1] (log P), the chromatographic logP was 2.66. Moreover, the pest or weed control at 100 g/ha in data set [2], in data set [3] (in Zea mays) and in data set [4] (in Brassica rapa) was no less than 80% in each case.
For `COC(C)(C)CNC(=O)c1cc(C#N)cc(C)c1NC(=O)c1cc(Cn2nnc(C(F)(F)F)n2)nn1-c1ncccc1Cl` [Example 95], the chromatographic logP in data set [1] (log P) was 3.12. Also, the pest or weed control at 100 g/ha in data set [2], in data set [3] (in Zea mays) and in data set [4] (in Brassica rapa) was no less than 80% each time.
In the case of `CSC[C@H](C)NC(=O)c1cc(C#N)cc(C)c1NC(=O)c1cc(Cn2nnc(C(F)(C(F)(F)F)C(F)(F)F)n2)nn1-c1ncccc1Cl` [Example 376], the chromatographic logP in data set [1] (setting [5]) amounted to 3.96. Besides, the pest or weed control at 100 g/ha in data set [2], in data set [3] (setting [6]) and in data set [4] (setting [7]) was no less than 80% in each case.
For `Cc1cc(Br)cc(C(=O)NC(C)(C)C)c1NC(=O)c1cc(Cn2nnc(C(F)(F)C(F)(F)F)n2)nn1-c1ncccc1Cl` [Example 219], in data set [1] (log P), the chromatographic logP is 4.36. The pest or weed control at 100 g/ha in data set [2], in data set [3] (in Zea mays) and in data set [4] (in Brassica rapa) was no less than 80% each time.
As to `Cc1cc(Br)cc(C(=O)NC(C)C)c1NC(=O)c1cc(Cn2nnnc2C(F)(F)F)nn1-c1ncccc1Cl` [Example 171], the chromatographic logP in data set [1] (log P) stood at 3.22. The pest or weed control at 100 g/ha in data set [2], in data set [3] (in Zea mays) and in data set [4] (in Brassica rapa) was no less than 80% each time.
`CNC(=O)c1cc(C#N)cc(C)c1NC(=O)c1cc(Cn2nnc(C(F)(F)F)n2)nn1-c1c(F)cccc1Cl` [Example 529]: the chromatographic logP in data set [1] (setting [8]) amounted to 3.13. Besides, the pest or weed control at 100 g/ha in data set [2], in data set [3] (setting [6]) and in data set [4] (setting [7]) was no less than 80% in each case.
Compound `Cc1cc(C#N)cc(C(=O)NC(C)C2CC2)c1NC(=O)c1cc(Cn2nnnc2C(F)(F)C(F)(F)F)nn1-c1ncccc1Cl` (stereo not shown) [Example 203] registered a chromatographic logP in data set [1] (log P) of 3.48. Also, the pest or weed control at 100 g/ha in data set [2], in data set [3] (in Zea mays) and in data set [4] (in Brassica rapa) was no less than 80% throughout.
With `CCNC(=O)c1cc(C#N)cc(C)c1NC(=O)c1cc(Cn2nnnc2C(F)(F)C(F)(F)F)nn1-c1ncccc1Br` [Example 519], the chromatographic logP in data set [1] (setting [8]) came out at 2.94. Moreover, the pest or weed control at 100 g/ha in data set [2], in data set [3] (setting [6]) and in data set [4] (setting [7]) was no less than 80% each time.
Take `CNC(=O)c1cc(C#N)cc(C)c1NC(=O)c1cc(Cn2nnc(C(F)(F)F)n2)nn1-c1cc(Cl)ccc1Cl` [Example 317]: the chromatographic logP in data set [1] (setting [5]) came out at 3.48. The pest or weed control at 100 g/ha in data set [2], in data set [3] (setting [6]) and in data set [4] (setting [7]) was no less than 80% each time.
For `Cc1cc(Cl)cc(C(=O)NC2CC2)c1NC(=O)c1cc(Cn2nnnc2C(F)(F)F)nn1-c1ncccc1Cl` [Example 163], in data set [1] (log P), the chromatographic logP was found to be 2.89. For the same compound, the pest or weed control at 100 g/ha in data set [2], in data set [3] (in Zea mays) and in data set [4] (in Brassica rapa) was no less than 80% in each case.
On to `CC(NC(=O)c1cc(Cl)cc(Cl)c1NC(=O)c1cc(Cn2nnnc2C(F)F)nn1-c1ncccc1Cl)C1CC1` (stereo not shown) [Example 465], for which the chromatographic logP in data set [1] (log P) was 3.02. Besides, the pest or weed control at 100 g/ha in data set [2], in data set [3] (in Zea mays) and in data set [4] (in Brassica rapa) was no less than 80% in each case.
Turning to `Cc1cc(Cl)cc(C(=O)NC(C)(C)C)c1NC(=O)c1cc(C(C)n2nnnc2C(F)(F)F)nn1-c1ncccc1Cl` (stereo not shown) [Example 511], the chromatographic logP in data set [1] (log P) worked out at 3.75. In addition, the pest or weed control at 100 g/ha in data set [2], in data set [3] (in Zea mays) and in data set [4] (in Brassica rapa) was no less than 80% in each case.
In turn, `CNC(=O)c1cc(C)cc(C)c1NC(=O)c1cc(Cn2nnc(C(F)(F)F)n2)nn1-c1ncccc1Cl` [Example 78] registered a chromatographic logP in data set [1] (log P) of 2.81. For the same compound, the pest or weed control at 100 g/ha in data set [2], in data set [3] (in Zea mays) and in data set [4] (in Brassica rapa) was no less than 80% each time.
